Results reported in patent US8906953B2, “Pyrrolidine substitute flavones for the treatment of inflammatory disorders” (Piramal Enterprises Limited, priority 2010, dated 2014).
pIC50: −log10 of the molar value.

Tests used:
[1] = tested on: synovial fluid mononuclear cells (SFMC); assay: Induction of apoptosis in synovial fluid mononuclear cells (Annexin-V/PI); assay type: cell-based, human; details: adherent and non-adherent SFMC from RA patients, 5 μM and 10 μM, 24 hours
Protocol: The assay was designed as in reference, Arthritis and Rheumatism, Vol. 52, No. 1, January 2005, the disclosure of which is incorporated herein by reference for the teaching of the assay.
Synovial fluid was collected from rheumatoid arthritis patients under going knee aspiration. The fluid was collected in vacutainers and processed within 2 hours of collection. SFMC were isolated using gradient centrifugation using Ficoll-Hypaque solution (Sigma). Isolated SFMC were suspended in RPMI 1640 (Rosewell Park Memorial Institute) culture medium (Sigma-Aldrich Fine Chemicals, USA) containing 20% fetal bovine serum (FBS) (JRH, USA), 100 U/ml penicillin (Sigma Chemical Co. St Louis, Mo.) and 100 μg/mL streptomycin (Sigma Chemical Co. St Louis, Mo.). The cell concentration was adjusted to 1×10^6 cells/mL. The viability as determined by trypan blue dye exclusion was uniformly >98%. 4 mL of this cell suspension was added to each well of a 6-well plate. The SFMC were incubated for 3-4 hours. Non-adherent cells were removed and cultured separately in 6-well plates. Fresh medium was added to the adherent cells. After 24 hours incubation in a humidified atmosphere at 37° C. in 5% CO2, non-adherent cells were removed and pooled with previous days samples. These cells were plated at a density of 2×10^6 cells/well. The adherent cell population was re-fed fresh complete medium. […]

IL-1β = assay: LPS-induced IL-1β release from hPBMCs (ELISA); assay type: cell-based; details: Homo sapiens
Protocol: Cytokine production by lipopolysaccharides (LPS) in hPBMCs (human peripheral blood mononuclear cells) was measured as in reference, Physiol. Res. 2003, 52, 593-598, the disclosure of which is incorporated by reference for the teaching of the assay. Blood was collected from healthy donors into Potassium EDTA vacutainer tubes (BID vacutainer). The PBMC were isolated using gradient centrifugation in Histopaque-1077 solution (Sigma). Isolated PBMC were suspended in RPMI 1640 (Rosewell Park Memorial Institute) culture medium (Sigma-Aldrich Fine Chemicals, USA) containing 10% fetal bovine serum (FBS) (JRH, USA), 100 U/mL penicillin (Sigma Chemical Co. St Louis, Mo., USA) and 100 μg/mL streptomycin (Sigma Chemical Co. St Louis, Mo.). The cell concentration was adjusted to 1×10^6 cells/mL. The viability as determined by trypan blue dye exclusion was uniform Ly≧98%. The cell suspension (100 μL) was added to the wells of a 96-well culture plate. Following cell plating, 79 μL of the culture medium and 1 μL of various concentrations of test compounds (compounds of formula 1) (final concentration 0.001, 0.003, 0.005, 0.01, 0.025, 0.03, 0.05, 0.1, 0.25, 0.3 and 1 μM) dissolved in DMSO (dimethyl sulfoxide, Sigma, Mo., USA) were added to the cells. The final concentration of DMSO was adjusted to 0.5%. The vehicle (0.5% DMSO) was used as control. […]

With `CN1CC[C@@H](c2c(O)cc(O)c3c(=O)cc(-c4ccc(C(F)(F)F)cc4Cl)oc23)[C@@H]1CO.Cl` [Compound of example 3, (+)-trans-2-(2-Chloro-4-trifluoromethyl-phenyl)-5,7-dihydroxy-8-(2-hydroxymethyl-1-methyl-pyrrolidin-3-yl)-chromen-4-one hydrochloride] the “Induction of apoptosis (Annexin-V/PI)” value [1] was “induces apoptosis” and the pIC50 (IL-1β) was 7.00.
